From article PMC12304285 (British Journal of Cancer, 2025)
“Also recorded” adds a separate entry of the source.

Columns and labels:
[1] = tested on: PBMCs collected from patients; test: iMRM-MS of DDR proteins in PBMCs collected from patients on treatment; type: in vivo, human; settings: doses up to 40 mg
Experimental: Prior to assessing clinical trial samples, PBMCs from healthy volunteers were treated ex vivo to determine biomarkers modulated by AZD7648. […] Samples were pooled and analysed by iMRM-MS. During the clinical trial, patient blood samples were collected during cycle 1 (day 1 and day 8), cycle 2 (day 1) and at the end of treatment and were analysed by iMRM-MS [20–23]. On-treatment tumour biopsies were optional in the trial protocol and none were collected, so tumour PD studies were not conducted.
Preparation of Clinical PBMCs and iMRM analysis
Blood from patients was drawn into 8 mL Vacutainer CPT tubes (BD) before treatment, 2-8h post dose at C1D1, C1D8, C2D1 and at discontinuation.
After inverting the tube 8 -10 times, it was centrifuged and the PBMC layer transferred into a new tube, washed once with ice cold PBS, centrifuged again to obtain a pellet which was then […]
PBMC pellets were lysed with 8M Urea supplemented with proteases and phosphatases inhibitors, sonicated, clarified by centrifugation and quantified with Micro -BCA assay (Thermo - […]
The samples were quality checked by SDS -PAGE followed by silver staining to evaluate the complexity of the obtained protein extract and assess the presence of most common blood contaminants (hemoglobulin and albumin). […]

[2] = tested on: patients with advanced cancer; test: Preliminary antitumour activity by RECIST v1.1 (best objective response, target lesion change, PFS);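 also: same imaging modality as baseline kept at every follow-up, response-evaluable patients had ≥1 measurable non-irradiated target lesion ≥10 mm longest diameter and received ≥1 study dose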
Experimental: The imaging method used at baseline had to be used at all follow-up visits. The following parameters were estimated: percentage best change in target lesion; duration of response; objective response rate (ORR); and progression-free survival (PFS).
Descriptive statistics were used for all variables, as appropriate, and calculated only when n ≥ 3. Where data were available for <3 patients, only minimum, maximum and number of observations were provided. Percentages were calculated using the analysis set total and for modules or doses, unless otherwise stated. […] PFS, including median time to PFS and PFS rate at a specific timepoint, was summarized using the Kaplan–Meier method. SAS® version 9.4 was used for all analyses. The PK analysis set included dosed patients for whom an adequate PK profile was obtained.

[3] = 12 patients evaluable for objective response

## Cc1cc2ncnn2cc1Nc1ncc2c(n1)n(C1CCOCC1)c(=O)n2C [AZD7648, 7-Methyl-2-[(7-methyl[1,2,4]triazolo[1,5-a]pyridin-6-yl)amino]-9-(tetrahydro-2H-pyran-4-yl)-7,9-dihydro-8H-purin-8-one]
[1]
  activity on DDR protein markers in patient PBMCs: did not show any activity; also recorded: not biologically active
[2]; 5 mg BID (n = 1)
  Best objective response: Complete response: 0 n (%)
  Best objective response: Death: 0 n (%)
  Best objective response: Disease progression: 1 (100.0) n (%)
  Best objective response: Not evaluable: 0 n (%)
  Best objective response: Partial response: 0 n (%)
  Best objective response: Stable disease: 0 n (%)
[2]; 5 mg QD (n = 1)
  Best objective response: Complete response: 0 n (%)
  Best objective response: Death: 0 n (%)
  Best objective response: Disease progression: 0 n (%)
  Best objective response: Not evaluable: 0 n (%)
  Best objective response: Partial response: 0 n (%)
  Best objective response: Stable disease: 1 (100.0) n (%)
[2]; 10 mg BID (n = 1)
  Best objective response: Complete response: 0 n (%)
  Best objective response: Death: 0 n (%)
  Best objective response: Disease progression: 0 n (%)
  Best objective response: Not evaluable: 0 n (%)
  Best objective response: Partial response: 0 n (%)
  Best objective response: Stable disease: 1 (100.0) n (%)
[2]; 20 mg BID (n = 1)
  Best objective response: Complete response: 0 n (%)
  Best objective response: Death: 0 n (%)
  Best objective response: Disease progression: 1 (100.0) n (%)
  Best objective response: Not evaluable: 0 n (%)
  Best objective response: Partial response: 0 n (%)
  Best objective response: Stable disease: 0 n (%)
[2]; 40 mg BID (n = 2)
  Best objective response: Complete response: 0 n (%)
  Best objective response: Death: 1 (50.0) n (%)
  Best objective response: Disease progression: 1 (50.0) n (%)
  Best objective response: Not evaluable: 0 n (%)
  Best objective response: Partial response: 0 n (%)
  Best objective response: Stable disease: 0 n (%)
[2]; 80 mg BID (n = 4)
  Best objective response: Complete response: 0 n (%)
  Best objective response: Death: 1 (25.0) n (%)
  Best objective response: Disease progression: 1 (25.0) n (%)
  Best objective response: Not evaluable: 1 (25.0) n (%)
  Best objective response: Partial response: 0 n (%)
  Best objective response: Stable disease: 1 (25.0) n (%)
[2]; 160 mg BID (n = 2)
  Best objective response: Complete response: 0 n (%)
  Best objective response: Death: 0 n (%)
  Best objective response: Disease progression: 1 (50.0) n (%)
  Best objective response: Not evaluable: 0 n (%)
  Best objective response: Partial response: 0 n (%)
  Best objective response: Stable disease: 1 (50.0) n (%)
[2]; [3]
  patients who died due to disease progression: 16.7%
  patients with RECIST disease progression: 41.7%
  patients with RECIST stable disease: 33.3%
[2]; All cohorts of the module
  Best objective response: Complete response: 0 n (%)
  Best objective response: Death: 2 (16.7) n (%)
  Best objective response: Disease progression: 5 (41.7) n (%)
  Best objective response: Not evaluable: 1 (8.3) n (%)
  Best objective response: Partial response: 0 n (%)
  Best objective response: Stable disease: 4 (33.3) n (%)
[2]; Kaplan–Meier, all dose levels
  Median PFS: 1.91 months
  PFS rate at 6 months: 23.08%
[2]; all dose levels
  RECIST response observed: No responses; also recorded: No patient had a RECIST complete or partial response
[2]; one patient with stable disease, 80 mg BID
  percentage change in target lesion size from baseline: −29.2%
[2]; single patient
  best percentage change from baseline in target lesion size, increase of the patient capped in the waterfall plot: 108.33%
